# Marks after values point to notes of the source that are not given here.
# What was measured:
# [1] = system: root-knot nematodes (Meloidogyne spp.); assay: nematocidal activity on hatched root-knot nematodes in Petri dish; conditions: 15 nematodes
# Experimental: The tomato roots infected with root-knot nematodes were washed with running water and were then cut to a size of about 1 cm, after which 50 g of the cut roots were placed in a 500 ml round-bottom flask containing 200 ml of 0.5% sodium hypochloride (NaOCl), stopped with a rubber stopper, and shaken vigorously for 3 min to sterilize the roots and at the same time burst the egg bag. Thereafter, the solution was passed through a sieve in which 200 mesh was superimposed on 500 mesh, and washed with distilled water, so the eggs of the root-knot nematodes from which the NaOCl solution was removed were recovered.
# Next, the eggs of the root-knot nematodes thus recovered were surface-sterilized with 0.5% NaOCl for 10 min, washed thoroughly with sterile distilled water, placed in a phosphate buffer (1%) containing sterilized normal saline, and hatched in an incubator at 25° C.
# Thereafter, each mixed solution was diluted to 2000 ppm, 2 to 3 ml thereof was poured into a Petri dish, after which 15 hatched root-knot nematodes were placed in the Petri dish, and nematocidal activity was measured and the results thereof are shown in Table 1 below.
# The number of root-knot nematodes used for the experiment on the number of killed root-knot nematodes was 15 at each dilution factor.
# tomato seedlings = assay: phytotoxicity of geraniol, drenching treatment of potted tomato seedlings; assay type: in vivo; conditions: 1 week after treatment; for Extent of phytotoxicity (0-5) / Phytotoxicity symptom: 50 ml drench, tomato
# Text: Sterilized soil was uniformly mixed, 300 g thereof was then placed in each pot, and tomato seedlings not infected with root-knot nematodes were transplanted thereto.
# [2] = system: Ae. aegypti, Culex species mosquitoes, Anopheles species mosquitoes; assay: mosquitos and midge adult activity; assay type: in vivo; conditions: used at 500 to 8,000 ppm
# [3] = cited from earlier work
# [4] = system: root-knot nematodes (Meloidogyne spp.); assay: nematocidal activity assessment of plant-derived materials in development; conditions: geraniol used at 500 to 4,000 ppm
# multiple insects = assay: insecticidal activity on multiple insects (oxymatrine); assay type: in vivo; conditions: used at 500 to 6,000 ppm
# Black Sigatoka = assay: field trials against black Sigatoka in bananas; conditions: applied as tank mixes with tea tree oil
# Experimental: Tea tree oil was used in disclosed experiments and trials as an 54 mulsifiable concentrated formulation. For field trials in bananas, tea tree oil was applied similarly to conventional synthetic fungicides, with mineral oil, surfactants, and/or just water. The following fungicides, registered for use against black sigatoka in bananas, were tested for comparison: azoxystrobin (Bankit 25 SC), trifloxystrobin (Flint, Tega 50 WG), difenoconazole (Score, Sico 25 EC), mancozeb (43 SC Duwest 80 WP), flutriafol (Impact, 125 SC) and tridemorph (Calixin 86 OL).
compound,measurement,setting,value
"C/C=C(\C)C(=O)O[C@H]1C[C@@H](OC(C)=O)[C@@]2(C(=O)OC)CO[C@H]3[C@@H](O)[C@@](C)([C@]45O[C@@]4(C)[C@H]4C[C@@H]5O[C@@H]5OC=C[C@@]54O)[C@H]4[C@]1(CO[C@]4(O)C(=O)OC)[C@@H]32 [Azadirachtin, azadirachtin]",number of killed root-knot nematodes,"[1]; 2000 ppm, 1 day",7
same,number of killed root-knot nematodes,"[1]; 2000 ppm, 2 days",8
same,number of killed root-knot nematodes,"[1]; 2000 ppm, 3 days",10
"CC(C)=CCC/C(C)=C/CO [Geraniol, 3,7-dimethyl-2,6-octadien-1-ol]",concentrations causing phytotoxicity in tomato seedlings,tomato seedlings; drench,"≥ 4,000 ppm"
same,concentrations with no effect on tomato seedlings,tomato seedlings; drench,"≤ 3,000 ppm"
same,Extent of phytotoxicity (0-5),tomato seedlings; geraniol 100 ppm,0
same,Phytotoxicity symptom,tomato seedlings; geraniol 100 ppm,No
same,Extent of phytotoxicity (0-5),tomato seedlings; geraniol 200 ppm,0
same,Phytotoxicity symptom,tomato seedlings; geraniol 200 ppm,No
same,Extent of phytotoxicity (0-5),tomato seedlings; geraniol 330 ppm,0
same,Phytotoxicity symptom,tomato seedlings; geraniol 330 ppm,No
same,Extent of phytotoxicity (0-5),tomato seedlings; geraniol 500 ppm,0
same,Phytotoxicity symptom,tomato seedlings; geraniol 500 ppm,No
same,Extent of phytotoxicity (0-5),"tomato seedlings; geraniol 1,000 ppm",0
same,Phytotoxicity symptom,"tomato seedlings; geraniol 1,000 ppm",No
same,Extent of phytotoxicity (0-5),"tomato seedlings; geraniol 2,000 ppm",0
same,Phytotoxicity symptom,"tomato seedlings; geraniol 2,000 ppm",No
same,Extent of phytotoxicity (0-5),"tomato seedlings; geraniol 3,000 ppm",0
same,Phytotoxicity symptom,"tomato seedlings; geraniol 3,000 ppm",No
same,Extent of phytotoxicity (0-5),"tomato seedlings; geraniol 4,000 ppm",5
same,Phytotoxicity symptom,"tomato seedlings; geraniol 4,000 ppm",Withered
same,Extent of phytotoxicity (0-5),"tomato seedlings; geraniol 5,000 ppm",5
same,Phytotoxicity symptom,"tomato seedlings; geraniol 5,000 ppm",Withered
same,Extent of phytotoxicity (0-5),"tomato seedlings; geraniol 10,000 ppm",5
same,Phytotoxicity symptom,"tomato seedlings; geraniol 10,000 ppm",Withered
same,Extent of phytotoxicity (0-5),"tomato seedlings; geraniol 20,000 ppm",5
same,Phytotoxicity symptom,"tomato seedlings; geraniol 20,000 ppm",Withered
same,mosquito and midge control,[2],superior mosquito and midge control was demonstrated without plant phytotoxicity or water toxicology
same,solubility in water,[3],insoluble in water
same,number of killed root-knot nematodes,"[1]; 2000 ppm, 1 day",15^a
same,number of killed root-knot nematodes,"[1]; geraniol 2,000 ppm, 1 day",15
same,nematocidal control,[4],superior nematocidal control was demonstrated without plant phytotoxicity
"O=C1CCC[C@@H]2[C@H]3CCC[N+]4([O-])CCC[C@@H](CN12)[C@@H]34 (some centres unmarked) [Oxymatrine, oxymatrine]",insecticidal control,multiple insects,superior insecticidal control was demonstrated without plant phytotoxicity
CC1COC(Cn2cncn2)(c2ccc(Oc3ccc(Cl)cc3)cc2Cl)O1 (centres unmarked) [difenoconazole],control of Black Sigatoka,Black Sigatoka,effectively controlled
CON=C(C(=O)OC)c1ccccc1CON=C(C)c1cccc(C(F)(F)F)c1 [trifloxystrobin],control of Black Sigatoka,Black Sigatoka,effectively controlled
pyrethrin,number of killed root-knot nematodes,"[1]; 2000 ppm, 1 day",5
same,number of killed root-knot nematodes,"[1]; 2000 ppm, 2 days",6
same,number of killed root-knot nematodes,"[1]; 2000 ppm, 3 days",11
